Series [1] is described as follows: Lipophilicity, log D of the compound at pH 7.4. The settings on record: buffer.
For series [2], the target named is T1, C-C chemokine receptor type 5 (Homo sapiens, UniProt P51681). Put plainly: Displacement of [125I]MIP-1alpha from human recombinant CCR5 expressed in CHO cells. Type of series: cell-based. (In general: In a radioligand displacement assay an active substance lowers the binding of a labelled ligand.)
Target sequence in this assay (P51681 whole entry): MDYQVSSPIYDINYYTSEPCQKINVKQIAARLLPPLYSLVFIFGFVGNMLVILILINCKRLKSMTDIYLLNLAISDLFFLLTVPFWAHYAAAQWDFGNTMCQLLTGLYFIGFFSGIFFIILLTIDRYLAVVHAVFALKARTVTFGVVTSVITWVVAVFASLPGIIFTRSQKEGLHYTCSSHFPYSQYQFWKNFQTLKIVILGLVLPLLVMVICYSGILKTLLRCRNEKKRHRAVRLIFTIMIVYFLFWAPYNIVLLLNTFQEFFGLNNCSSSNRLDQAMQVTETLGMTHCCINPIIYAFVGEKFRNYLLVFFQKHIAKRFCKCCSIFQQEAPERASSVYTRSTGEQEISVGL
Series [3] in a line: Intrinsic clearance in human liver microsomes. (Microsomes from liver hold many membrane-bound enzymes, among them those of drug oxidation.)
The target in series [4] is Voltage-gated inwardly rectifying potassium channel KCNH2 (Homo sapiens, UniProt Q12809). The series can be described thus: Displacement of 3,7-Bis[2-(4-nitro[3,5-3H]phenyl)ethyl]-3,7-diazabicyclo[3.3.1]nonane from human ERG expressed in HEK cells after 3 hrs.
Sequence of Voltage-gated inwardly rectifying potassium channel KCNH2 (Q12809 whole entry): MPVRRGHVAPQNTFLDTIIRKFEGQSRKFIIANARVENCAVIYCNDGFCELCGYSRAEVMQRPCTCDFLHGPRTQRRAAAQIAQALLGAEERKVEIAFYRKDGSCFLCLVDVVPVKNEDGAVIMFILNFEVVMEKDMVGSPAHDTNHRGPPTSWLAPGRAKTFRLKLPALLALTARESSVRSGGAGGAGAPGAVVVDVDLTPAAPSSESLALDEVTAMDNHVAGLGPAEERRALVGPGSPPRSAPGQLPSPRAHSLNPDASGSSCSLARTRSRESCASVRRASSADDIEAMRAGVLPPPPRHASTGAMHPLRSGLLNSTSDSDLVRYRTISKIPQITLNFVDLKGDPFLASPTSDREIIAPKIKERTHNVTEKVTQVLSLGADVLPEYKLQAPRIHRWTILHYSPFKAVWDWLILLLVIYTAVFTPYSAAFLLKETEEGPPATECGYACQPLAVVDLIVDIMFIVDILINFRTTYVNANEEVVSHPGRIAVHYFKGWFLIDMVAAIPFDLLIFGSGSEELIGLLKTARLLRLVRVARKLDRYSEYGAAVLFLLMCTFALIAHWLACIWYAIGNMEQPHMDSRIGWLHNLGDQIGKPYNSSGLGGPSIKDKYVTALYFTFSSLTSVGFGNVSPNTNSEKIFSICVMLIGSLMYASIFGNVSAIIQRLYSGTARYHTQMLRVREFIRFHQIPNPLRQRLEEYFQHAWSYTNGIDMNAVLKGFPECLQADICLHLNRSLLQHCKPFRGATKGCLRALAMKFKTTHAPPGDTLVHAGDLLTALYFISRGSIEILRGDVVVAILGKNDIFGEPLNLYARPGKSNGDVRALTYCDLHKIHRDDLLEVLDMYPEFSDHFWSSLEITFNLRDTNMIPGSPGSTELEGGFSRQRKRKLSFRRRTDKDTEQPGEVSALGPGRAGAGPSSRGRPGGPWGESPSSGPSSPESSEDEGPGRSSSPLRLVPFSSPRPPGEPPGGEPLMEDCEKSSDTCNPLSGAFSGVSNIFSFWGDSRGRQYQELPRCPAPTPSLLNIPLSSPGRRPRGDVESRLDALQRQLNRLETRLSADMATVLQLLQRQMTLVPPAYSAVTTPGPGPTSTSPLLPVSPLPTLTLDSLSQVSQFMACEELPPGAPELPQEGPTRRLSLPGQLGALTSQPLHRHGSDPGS
Series [5] in a line: Half life in rat at 1 to 2 mg/kg, iv. Details: dose 1-2 mg/kg, route intravenous. The series is classed as ADME, organism-based. Particulars: in vivo.
Series [6] is described as follows: Oral bioavailability in rat at 2 to 5 mg/kg. The series is classed as ADME, organism-based. Particulars: in vivo.
Series [7] in a line: Oral bioavailability in male dog at 2 to 5 mg/kg. The settings on record: in vivo. Type of series: ADME, organism-based, Canis lupus familiaris.
The nature of series [8]: Clearance in male dog at 1 to 2 mg/kg, iv. Particulars: in vivo. Details: dose 1-2 mg/kg, route intravenous. Type of series: ADME, organism-based, Canis lupus familiaris.
Series [9] is described as follows: Volume of distribution at steady state in rat at 1 to 2 mg/kg, iv. Type of series: ADME, organism-based. The settings on record: in vivo, read-out: Vdss. Also noted: dose 1-2 mg/kg, route intravenous.
Series [10] in a line: Volume of distribution at steady state in female dog at 1 to 2 mg/kg, iv. Type of series: ADME, organism-based, Canis lupus familiaris. Also noted: dose 1-2 mg/kg, route intravenous. Particulars: in vivo, read-out: Vdss.
Series [11] is described as follows: Clearance in rat at 1 to 2 mg/kg, iv. Type of series: ADME, organism-based. Details: dose 1-2 mg/kg, route intravenous. Particulars: in vivo.
Series [12] is described as follows: Volume of distribution at steady state in male dog at 1 to 2 mg/kg, iv. The series is classed as ADME, organism-based, Canis lupus familiaris. Details: dose 1-2 mg/kg, route intravenous. The settings on record: in vivo, read-out: Vdss.
Series [13] is described as follows: Oral bioavailability in female dog at 2 to 5 mg/kg. The series is classed as ADME, organism-based, Canis lupus familiaris. Particulars: in vivo.
The nature of series [14]: Clearance in female dog at 1 to 2 mg/kg, iv. Type of series: ADME, organism-based, Canis lupus familiaris. Also noted: dose 1-2 mg/kg, route intravenous. The settings on record: in vivo.
A short description of series [15]: Half life in female dog at 1 to 2 mg/kg, iv. Type of series: ADME, organism-based, Canis lupus familiaris. Details: dose 1-2 mg/kg, route intravenous. Particulars: in vivo.
Series [16] can be described thus: Half life in male dog at 1 to 2 mg/kg, iv. The series is classed as ADME, organism-based, Canis lupus familiaris. Details: dose 1-2 mg/kg, route intravenous. Particulars: in vivo.
Series [17] has as its target T1, C-C chemokine receptor type 5. Put plainly: Antagonist activity at CCR5 in human whole blood assessed as inhibition of MIP-1beta-induced receptor internalization. The series is classed as functional, tissue-based.
Target sequence in this assay (P51681 whole entry, looked up): as the sequence (P51681 whole entry) above

In general, logD refers to lipophilicity at a set pH, counting ionised and neutral species. Read a low logD as a more hydrophilic compound. A word on the IC50: it is the concentration that inhibits the measured activity by half. For orientation: microsomal CLint means the rate of metabolic loss divided by the concentration. Read a high microsomal CLint as rapid turnover. Usually half-life stands for how long it takes for the measured level to halve. As usually defined, the bioavailability is the share of a dose that reaches the circulation, judged against a reference dose that is usually intravenous. A low value points to little systemic uptake. By clearance is commonly meant a measure of how efficiently the substance is removed, as volume per time. Lower therefore signals a low capacity for elimination.

In series [1], `CCN(C(=O)Cc1ccc(S(C)(=O)=O)cc1)C1CCN(CCC(c2ccccc2)C2CCN(S(=O)(=O)CC(F)(F)F)CC2)CC1` (stereo not given) yielded a pH-dependent lipophilicity (logD) of 2.2. Further, in series [2], the IC50 stood at 5.4 nM. The microsomal CLint in series [3] (liver microsomes) was determined as 28 µL/min/mg.
Regarding `CCN(C(=O)Cc1ccc(S(C)(=O)=O)cc1)C1CCN(CC[C@@H](c2ccccc2)N2CCN(S(=O)(=O)C(F)(F)F)CC2)CC1`, the IC50 in [4] was 3200 nM; in series [2] it was 1.6 nM. This compound displayed a microsomal CLint in series [3] (liver microsomes) of 33 µL/min/mg.
Regarding `CCN(C(=O)Cc1ccc(S(C)(=O)=O)cc1)C1CCN(CC[C@@H](c2ccccc2)N2CCN(S(=O)(=O)CC(F)(F)F)CC2)CC1`, the IC50 was 5800 nM in [4] and 8.9 nM in [2]. In [1], this compound yielded a log distribution coefficient (logD) of 1.8. The compound also registered a microsomal CLint in series [3] (liver microsomes) of 47 µL/min/mg.
For `CCN(C(=O)Cc1ccc(S(C)(=O)=O)cc1)C1CCN(CC[C@@H](c2ccccc2)C2CCN(S(C)(=O)=O)CC2)CC1`, the IC50 in [4] amounted to 25000 nM; in series [2] it was 1.1 nM. This compound also gave a logD in series [1] of 1.1. The intrinsic metabolic clearance (microsomal CLint) in [3] (liver microsomes) came out at 31 µL/min/mg.
In the same order, the values of `CCN(C(=O)Cc1ccc(S(C)(=O)=O)cc1)C1CCN(CC[C@@H](c2ccccc2)C2CCN(S(=O)(=O)C(F)(F)F)CC2)CC1` are 1200 nM, < 0.1 nM, 3.4 and 28 µL/min/mg.
Consider `CCN(C(=O)Cc1ccc(S(C)(=O)=O)cc1)C1CCN(CC[C@@H](c2cc(F)cc(F)c2)N2CCN(S(C)(=O)=O)CC2)CC1`, for which the IC50 in series [4] is > 32000 nM; in series [2], 3.7 nM. Also, the half-life in [5] was 2.4 h; in series [15], 4.7 h; in series [16] it was 8.3 h. Moreover, in series [1], the logD amounted to 1.2. Also, the bioavailability in series [6] stood at 7.3%; in [7] it was 15%; in [13] it was 22%. In addition, the clearance worked out at 12 mL/min/kg in [8], 71 mL/min/kg in series [11] and 7.5 mL/min/kg in [14]. Further, the results for the Vd in [9], in series [10] and in [12] were 7.7 L/kg, 2.2 L/kg and 3.2 L/kg, respectively. Besides, in [3] (microsomes), the microsomal CLint turned out to be 8 µL/min/mg.
As for `CCN(C(=O)Cc1ccc(S(C)(=O)=O)cc1)C1CCN(CC[C@@H](c2cccc(S(C)(=O)=O)c2)C2CCN(S(C)(=O)=O)CC2)CC1`, the logD in series [1] came to 0.6. Besides, the IC50 in series [2] was 794 nM.
With `CCN(C(=O)Cc1ccc(S(C)(=O)=O)cc1)C1CCN(CC[C@@H](c2cccc(OC)c2)C2CCN(S(C)(=O)=O)CC2)CC1`, the results for the IC50 in series [4] and in series [2] were 32000 nM and 5 nM, respectively. The logD in series [1] was 1.2. Besides, the microsomal CLint in series [3] (liver microsomes) was 45 µL/min/mg.
On to `CCN(C(=O)Cc1ccc(S(C)(=O)=O)cc1)C1CCN(CC[C@@H](c2cccc(F)c2)C2CCN(S(C)(=O)=O)CC2)CC1`, for which the intrinsic metabolic clearance (microsomal CLint) in [3] (liver microsomes) is 18 µL/min/mg.
Turning to `CCN(C(=O)Cc1ccc(S(C)(=O)=O)cc1)C1CCN(CC[C@@H](c2cccc(C)c2)C2CCN(S(C)(=O)=O)CC2)CC1`, the logD in series [1] is 1.5. For the same compound, in series [2], the IC50 amounted to 0.44 nM. The microsomal CLint in series [3] (liver microsomes) came to 104 µL/min/mg.
In series [1], `CCN(C(=O)Cc1ccc(S(C)(=O)=O)cc1)C1CCN(CC[C@@H](c2cc(F)cc(Cl)c2)C2CCN(S(C)(=O)=O)CC2)CC1` had a logD of 1.6. This compound also came in with a microsomal CLint in series [3] (liver microsomes) of 22 µL/min/mg.
In turn, `CCN(C(=O)Cc1ccc(S(C)(=O)=O)cc1)C1CCN(CC[C@@H](c2cc(C)cc(C)c2)C2CCN(S(C)(=O)=O)CC2)CC1` gave a logD in [1] of 1.9. Also, in [2], the IC50 was < 0.1 nM. Besides, in series [3] (liver microsomes), the microsomal CLint is > 150 µL/min/mg.
`CCN(C(=O)Cc1ccc(S(C)(=O)=O)cc1)C1CCN(CC[C@@H](c2cccc(Cl)c2)C2CCN(S(C)(=O)=O)CC2)CC1`: the figures for the IC50 in series [4] and in [2] were 7900 nM and 0.55 nM, respectively. Besides, in series [1], the logD worked out at 1.8. The compound further registered a microsomal CLint in series [3] (liver microsomes) of 32 µL/min/mg.
In the same order, the values of `CCN(C(=O)Cc1ccc(S(C)(=O)=O)cc1)C1CCN(CC[C@@H](c2cccc(C(F)(F)F)c2)C2CCN(S(C)(=O)=O)CC2)CC1` are 7900 nM, 3.5 nM, 1.9 and 17 µL/min/mg.
Take `CCN(C(=O)Cc1ccc(S(C)(=O)=O)cc1)C1CCN(CC[C@@H](c2cc(Cl)cc(Cl)c2)C2CCN(S(C)(=O)=O)CC2)CC1`: the results for the IC50 in series [4] and in [2] were 6500 nM and < 0.1 nM, respectively. For the same compound, the logD in series [1] was found to be 2.6.
As for `CCN(C(=O)Cc1ccc(S(C)(=O)=O)cc1)C1CCN(CC[C@H](c2ccc(S(C)(=O)=O)cc2)c2cc(F)cc(F)c2)CC1`, the A2 in [17] amounted to 1.1 nM. The compound further gave a microsomal CLint in series [3] (liver microsomes) of 8 µL/min/mg.
In [1], `CCN(C(=O)Cc1ccc(S(C)(=O)=O)cc1)C1CCN(CCC(c2ccccc2)N2CCN(C)CC2)CC1` (racemic) registered a logD of 0.9.
For the compound `CCN(C(=O)Cc1ccc(S(C)(=O)=O)cc1)C1CCN(CCC(c2ccccc2)N2CCN(c3ccccc3)CC2)CC1` (racemic), the IC50 in series [4] came to 13000 nM; in series [2] it was 5 nM. Also, in series [1], the logD came to 2.7. The microsomal CLint in [3] (liver microsomes) was 26 µL/min/mg.
In the same order, the values of `CCN(C(=O)Cc1ccc(S(C)(=O)=O)cc1)C1CCN(CCC(c2ccccc2)N2CCN(c3cccc(F)c3)CC2)CC1` (racemic) are 3200 nM, 3.1 nM, 3.2 and 22 µL/min/mg.
`CCN(C(=O)Cc1ccc(S(C)(=O)=O)cc1)C1CCN(CCC(c2ccccc2)N2CCN(C(C)=O)CC2)CC1` (racemic) came in with a logD in series [1] of 0.9. The IC50 in [2] is 229 nM.
The compound `CCN(C(=O)Cc1ccc(S(C)(=O)=O)cc1)C1CCN(CCC(c2ccccc2)N2CCN(S(C)(=O)=O)CC2)CC1` (racemic) registered a logD in [1] of 0.8. In series [2], the IC50 amounted to 39 nM. Also, the microsomal CLint in [3] (liver microsomes) was < 3 µL/min/mg.
In the same order, the values of `CCN(C(=O)Cc1ccc(S(C)(=O)=O)cc1)C1CCN(CCC(c2ccccc2)N2CCN(S(=O)(=O)CC)CC2)CC1` (racemic) are 1, 15 nM and 52 µL/min/mg.
For `CCN(C(=O)Cc1ccc(S(C)(=O)=O)cc1)C1CCN(CCC(c2ccccc2)N2CCC(C)CC2)CC1` (racemic), the logD in series [1] amounted to 2. Moreover, the IC50 in series [2] came out at 339 nM.
In the same order, the values of `CCN(C(=O)Cc1ccc(S(C)(=O)=O)cc1)C1CCN(CCC(c2ccccc2)N2CCC(Cc3ccccc3)CC2)CC1` (racemic) are 3.7 and 162 nM.
For the compound `CCN(C(=O)Cc1ccc(S(C)(=O)=O)cc1)C1CCN(CCC(c2ccccc2)N2CCC(C(C)=O)CC2)CC1` (racemic), the logD in series [1] is 0.9. In addition, the IC50 in series [2] was 83 nM. The microsomal CLint in series [3] (liver microsomes) stood at 21 µL/min/mg.
As to `CCN(C(=O)Cc1ccc(S(C)(=O)=O)cc1)C1CCN(CCC(c2ccccc2)C2CCN(C)CC2)CC1` (racemic), the logD in [1] turned out to be 1. Also, the IC50 in series [2] amounted to 126 nM.
With `CCN(C(=O)Cc1ccc(S(C)(=O)=O)cc1)C1CCN(CCC(c2ccccc2)C2CCN(Cc3ccccc3)CC2)CC1` (racemic), in series [2], the IC50 was determined as 8.9 nM. Also, in series [3] (liver microsomes), the microsomal CLint was > 150 µL/min/mg.
The compound `CCN(C(=O)Cc1ccc(S(C)(=O)=O)cc1)C1CCN(CCC(c2ccccc2)C2CCN(C(C)=O)CC2)CC1` (racemic) returned a logD in series [1] of 1.4. Further, the IC50 in series [2] came to 37 nM.
In series [1], `CCN(C(=O)Cc1ccc(S(C)(=O)=O)cc1)C1CCN(CCC(c2ccccc2)C2CCN(S(=O)(=O)CC)CC2)CC1` (racemic) had a logD of 1.6. Moreover, the IC50 in series [2] came out at 2.4 nM. In series [3] (liver microsomes), this compound had an intrinsic metabolic clearance (microsomal CLint) of 61 µL/min/mg.

The record behind these values is ChEMBL document CHEMBL1949642 (Bioorg Med Chem Lett, 2012).
